Experimental data: patent US11761045B2, “Splice variants associated with neomorphic SF3B1 mutants” (Eisai R&D Management Co., Ltd., priority 2015, dated 2023)

Assays:
SF3B1^K700E = SF3B1^K700E (Homo sapiens, UniProt O75533+Q7RTV0, K700E); assay: Competitive binding assay (SPA, 3H-probe molecule) with Flag-tag SF3B1 from 293F cells; design: expressed in transfected cells; host or cells: 293F cells (Life Technologies), transient transfection with pFLAG-CMV-2-SF3B1 K700E; conditions: one nM 3H-probe; Flag-tag SF3B1^K700E from transfected 293F cells; read-out: IC50, competitive inhibition of binding of the 3H-probe molecule
Procedure: The ability of E7107 to bind both SF3B1^WT and SF3B1^K700E proteins was evaluated in a competitive binding assay using Flag-tag SF3B1 proteins immunoprecipitated with anti-Flag antibody from transiently transfected 293F cells. Batch immobilization of antibody to beads was prepared by incubating 80 μg of anti-SF3B1 antibody (MBL International) and 24 mg anti-mouse PVT SPA scintillation beads (PerkinElmer) for 30 minutes. After centrifugation, the antibody-bead mixture was resuspended in PBS supplemented with PhosSTOP phosphatase inhibitor cocktail (Roche) and complete ULTRA protease inhibitor cocktail (Roche). Nuclear extracts were prepared by diluting 40 mg into a total volume of 16 mL PBS with phosphatase and protease inhibitors, and the mixture was centrifuged. The supernatant was transferred into a clean tube, and the antibody-bead mixture was added and incubated for two hours. The beads were collected by centrifuging, washed twice with PBS+0.1% Triton X-100, and resuspended with 4.8 mL of PBS. 100 μL binding reactions were prepared using slurry and varying concentrations of E7107. […] The mixture was incubated at room temperature for 15 minutes, and luminescence signals were read using a MicroBeta2 Plate Counter (PerkinElmer).

[1] = tested on: Nalm-6 SF3B1^K700E xenograft; assay: Antitumor activity in subcutaneous Nalm-6 SF3B1^K700E xenograft model; format: in vivo, CB17-SCID mice
Procedure: SF3B1 modulator E7107 was tested for antitumor activity in vivo by determining the effect of E7107 in a subcutaneous model of Nalm-6 SF3B1^K700E. […] After this dosing, the animals were monitored until they reached either of the following endpoints: 1) excessive tumor volume measured three times a week (tumor volume calculated by using the ellipsoid formula: […]), or 2) development of any health problem such as paralysis or excessive body weight loss. Partial regression (PR) and complete regression (CR) are defined as 3 consecutive tumor measurements <50% and <30% of starting volume respectively.

Sequence of SF3B1^K700E (Q15393 whole entry, stated change not applied): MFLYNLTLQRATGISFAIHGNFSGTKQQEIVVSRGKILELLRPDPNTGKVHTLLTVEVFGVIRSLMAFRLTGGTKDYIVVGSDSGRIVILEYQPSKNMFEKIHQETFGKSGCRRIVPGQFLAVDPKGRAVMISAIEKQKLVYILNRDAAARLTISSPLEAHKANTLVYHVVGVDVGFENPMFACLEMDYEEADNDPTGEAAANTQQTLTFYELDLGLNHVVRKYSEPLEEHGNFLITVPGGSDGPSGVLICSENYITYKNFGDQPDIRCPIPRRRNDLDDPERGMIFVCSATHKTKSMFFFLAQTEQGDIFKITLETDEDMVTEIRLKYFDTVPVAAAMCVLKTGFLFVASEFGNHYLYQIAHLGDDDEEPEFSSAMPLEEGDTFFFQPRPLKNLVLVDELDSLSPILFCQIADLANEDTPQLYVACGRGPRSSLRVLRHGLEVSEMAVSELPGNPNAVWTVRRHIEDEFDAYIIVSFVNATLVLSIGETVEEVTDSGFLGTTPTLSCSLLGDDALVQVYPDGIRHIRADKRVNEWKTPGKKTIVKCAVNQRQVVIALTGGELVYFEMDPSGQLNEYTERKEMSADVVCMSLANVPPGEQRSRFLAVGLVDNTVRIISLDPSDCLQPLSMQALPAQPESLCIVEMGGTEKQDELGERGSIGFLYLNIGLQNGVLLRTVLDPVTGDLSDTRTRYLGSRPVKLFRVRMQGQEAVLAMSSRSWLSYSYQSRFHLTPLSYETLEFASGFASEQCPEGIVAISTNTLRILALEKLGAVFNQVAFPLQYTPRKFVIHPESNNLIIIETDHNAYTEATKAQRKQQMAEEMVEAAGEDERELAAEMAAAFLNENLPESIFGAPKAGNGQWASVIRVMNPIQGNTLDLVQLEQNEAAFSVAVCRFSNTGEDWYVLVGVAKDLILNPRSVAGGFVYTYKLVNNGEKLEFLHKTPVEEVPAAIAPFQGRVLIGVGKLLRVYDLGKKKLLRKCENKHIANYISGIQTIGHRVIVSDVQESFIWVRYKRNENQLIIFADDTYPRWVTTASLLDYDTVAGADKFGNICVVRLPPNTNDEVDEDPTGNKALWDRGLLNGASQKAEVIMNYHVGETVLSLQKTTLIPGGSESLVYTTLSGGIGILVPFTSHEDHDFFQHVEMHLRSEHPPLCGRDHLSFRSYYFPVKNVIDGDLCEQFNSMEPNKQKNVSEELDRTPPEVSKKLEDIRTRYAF
Sequence of SF3B1^K700E (Q9BWJ5 whole entry, further chain): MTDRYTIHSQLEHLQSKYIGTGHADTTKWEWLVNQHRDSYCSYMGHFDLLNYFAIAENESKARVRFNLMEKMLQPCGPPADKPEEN
Sequence of SF3B1^K700E (Q7RTV0 whole entry): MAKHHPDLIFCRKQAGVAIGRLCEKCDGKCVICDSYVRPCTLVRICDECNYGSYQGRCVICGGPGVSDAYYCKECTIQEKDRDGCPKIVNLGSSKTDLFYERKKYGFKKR
Sequence of SF3B1^K700E (O75533 whole entry K700E): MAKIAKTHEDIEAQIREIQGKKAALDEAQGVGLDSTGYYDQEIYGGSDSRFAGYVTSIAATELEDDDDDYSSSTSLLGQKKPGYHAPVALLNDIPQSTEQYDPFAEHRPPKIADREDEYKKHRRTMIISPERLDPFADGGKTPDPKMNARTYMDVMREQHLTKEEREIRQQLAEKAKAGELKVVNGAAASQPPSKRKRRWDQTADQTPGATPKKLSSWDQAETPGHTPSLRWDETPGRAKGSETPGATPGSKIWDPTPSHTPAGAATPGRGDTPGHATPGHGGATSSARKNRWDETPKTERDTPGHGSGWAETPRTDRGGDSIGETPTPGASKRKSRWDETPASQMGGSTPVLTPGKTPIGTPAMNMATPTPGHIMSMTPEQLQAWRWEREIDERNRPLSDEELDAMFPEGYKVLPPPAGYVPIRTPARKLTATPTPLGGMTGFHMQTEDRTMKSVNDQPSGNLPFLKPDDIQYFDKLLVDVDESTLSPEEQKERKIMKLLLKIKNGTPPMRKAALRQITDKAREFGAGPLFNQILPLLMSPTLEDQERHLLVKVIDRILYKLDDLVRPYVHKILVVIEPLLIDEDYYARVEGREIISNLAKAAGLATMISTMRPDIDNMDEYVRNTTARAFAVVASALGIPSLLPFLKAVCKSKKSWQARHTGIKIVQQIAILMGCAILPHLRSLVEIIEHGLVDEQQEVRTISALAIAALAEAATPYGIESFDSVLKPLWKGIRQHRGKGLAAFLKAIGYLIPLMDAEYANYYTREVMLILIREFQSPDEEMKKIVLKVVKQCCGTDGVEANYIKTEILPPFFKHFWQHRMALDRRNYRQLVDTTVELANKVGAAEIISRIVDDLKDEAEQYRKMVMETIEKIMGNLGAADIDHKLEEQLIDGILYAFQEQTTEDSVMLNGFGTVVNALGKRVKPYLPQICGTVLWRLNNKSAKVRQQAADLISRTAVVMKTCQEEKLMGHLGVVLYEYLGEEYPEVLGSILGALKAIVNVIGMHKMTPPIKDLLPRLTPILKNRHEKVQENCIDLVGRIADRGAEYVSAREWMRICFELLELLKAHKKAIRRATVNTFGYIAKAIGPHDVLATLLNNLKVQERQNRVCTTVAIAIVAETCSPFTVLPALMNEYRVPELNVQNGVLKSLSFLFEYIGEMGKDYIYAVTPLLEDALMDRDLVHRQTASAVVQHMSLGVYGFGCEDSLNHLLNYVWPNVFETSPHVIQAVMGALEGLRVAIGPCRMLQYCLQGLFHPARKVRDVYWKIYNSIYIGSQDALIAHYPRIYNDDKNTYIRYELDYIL

CC[C@H](O)[C@@H](C)[C@H]1O[C@@H]1C[C@@](C)(O)/C=C/C=C(\C)[C@H]1OC(=O)C[C@H](O)CC[C@@](C)(O)[C@@H](OC(=O)N2CCN(C3CCCCCC3)CC2)/C=C/[C@@H]1C [Compound E7107]
IC50 (SF3B1^K700E): 11 nM | complete regression (CR) ([1]; 1.25 mg/kg IV QDx5, n=10): all animals (n=10) reached complete regression (CR) | complete regressions (CRs), animals ([1]; 2.5 mg/kg IV QDx5, by day 9): 10/10 | complete regression (CR) ([1]; 5 mg/kg IV QDx5): all Nalm-6 SF3B1^K700E xenograft animals reached CR as early as 9 days post treatment | mean survival time ([1]; 5 mg/kg IV QDx5): over 250 days | tolerability of dose levels ([1]; 1.25, 2.5 and 5 mg/kg IV QDx5): well tolerated
